Source: patent US20110039762A1, “TARGETED ANTIMICROBIAL MOIETIES” (C3 JIAN, INC., priority 2009, published 2011)
Entries after “also recorded” stand apart in the source; their conditions may differ.

How the values were obtained:
MRSA = assay: Kill or inhibit growth/proliferation; morphology, biofilm and growth disruption (Tables 5, 6); assay type: cell-based, Methicillin-resistant Staphylococcus aureus; set-up: key: A: Peptide aggregates; B: Less hyphal formation; Clumps; Diffuse clumps and small polyps; F: Diffuse growth; H: Thin; I: Growth inhibition; Microcolony formation; Rippled; Small polyps; Thick; W: Halo formation on top, microlonies on bottom; further: test concentration or dose not given here
[1] = test system: microorganisms (e.g., bacteria, yeasts, fungi); assay: Targeting peptide binding to target microorganisms (Table 3); details: preferably 1x PBS; for Target(s) (microorganisms bound by the targeting peptide): peptide binding in aqueous buffers varied by peptide solubility
microorganisms = assay: Peptides having multiple activities (targeting/binding, antimicrobial, growth or phenotype altering)
Source text: In certain embodiments, peptides described herein can have multiple activities. Thus for example, a peptide can have both binding/targeting activity and antimicrobial activity. Such peptides can be used, e.g., in a chimeric construct, for any or all of these properties. Thus, for example, a peptide designated “B” in Table 8 can be used as a targeting peptide. If it is also designated G or M it can also be used for antimicrobial activity.

S. pneumoniae = assay: Kill or inhibit growth/proliferation; morphology, biofilm and growth disruption (Tables 5, 6); assay type: cell-based, Streptococcus pneumoniae; set-up: key: A: Peptide aggregates; B: Less hyphal formation; Clumps; Diffuse clumps and small polyps; F: Diffuse growth; H: Thin; I: Growth inhibition; Microcolony formation; Rippled; Small polyps; Thick; W: Halo formation on top, microlonies on bottom; further: test concentration or dose not given here
S. epidermidis = assay: as above; assay type: cell-based, Staphylococcus epidermidis; set-up: key: A: Peptide aggregates; B: Less hyphal formation; Clumps; Diffuse clumps and small polyps; F: Diffuse growth; H: Thin; I: Growth inhibition; Microcolony formation; Rippled; Small polyps; Thick; W: Halo formation on top, microlonies on bottom
[2] = microorganism the targeting peptide binds, binding in aqueous buffers varied by peptide solubility
[3] = microorganism(s) the targeting peptide binds, peptide binding conducted in aqueous buffers varied by peptide solubility
[4] = microorganism(s) the targeting peptide binds, binding in aqueous buffers depending on peptide solubility
Wherever Organism, effect is given: test concentration or dose not given here.

Substance	Organism, effect (MRSA)	Target(s) [1, 2]	Activities (microorganisms)	further results
PF-049: peptide having multiple activities (chain 1 AYYLKRREEKGK; chain 2 AYYLKRREEKGK; Peptide with targeting and/or antimicrobial activity)	MRSA (S)	S. epidermidis and MRSA and C. jeikeium and C. jejuni	G B	
PF-642: peptide having multiple activities (chain 1 FTTPMIGIPAGLLGGSYYLKRREEKGK; chain 2 FTTPMIGIPAGLLGGSYYLKRREEKGK; Peptide with targeting and/or antimicrobial activity)	MRSA (M)		G B	Target(s) (microorganisms bound by the targeting peptide) [1]: M. luteus and MRSA and C. jeikeium
MQIFYIKTKIFLSFFLFLLIFSQCFYKIEE [PF-442]	MRSA (M)		G B	Organism, effect (S. pneumoniae): S. pneumoniae (C); Target(s) [1, 3]: S. epidermidis; also recorded: E. coli; also recorded: C. albicans; also recorded: S. pneumoniae; also recorded: E. faecalis
PF-405: peptide having multiple activities (LVRIEVDDLEEWYERNFI; Peptide with targeting and/or antimicrobial activity)	MRSA (M)		G B	Target(s) [1, 3]: S. epidermidis; also recorded: E. coli; also recorded: E. faecalis
PF-017: peptide having multiple activities (chain 1 ESIIE; chain 2 ESIIE; Peptide with targeting and/or antimicrobial activity)	MRSA (M)	E. coli	G B	
PF-310 (GVALIGTILVPLLSGLFG; Peptide with targeting and/or antimicrobial activity)				Organism, effect (S. epidermidis): S. epidermidis (C)
PF-015: peptide having multiple activities (chain 1 SIDKRNLYNLKYYE; chain 2 SIDKRNLYNLKYYE; Peptide with targeting and/or antimicrobial activity)	MRSA (W)	E. faecalis; also recorded: C. jeikeium	G B	
PF-658 (chain 1 PTTPPPTTPPEIPTGGTVIST; chain 2 PTTPPPTTPPEIPTGGTVIST; Peptide with targeting and/or antimicrobial activity)				Organism, effect (morphology, biofilm and growth disruption) (MRSA): MRSA (R); Organism, effect (morphology, biofilm and growth disruption) (S. pneumoniae): S. pneumoniae (H); Target(s) (microorganisms bound by the targeting peptide) [1]: Mycobacteria spp
PF-157: peptide having multiple activities (HTAVVWLAGVSGCVALSHCEPA; Peptide with targeting and/or antimicrobial activity)			G B	Organism, effect (S. epidermidis): S. epidermidis (M)
PF-058: peptide having multiple activities (chain 1 FADQSQDNA; chain 2 FADQSQDNA; Peptide with targeting and/or antimicrobial activity)	MRSA (M)	S. epidermidis and M. luteus and E. coli and C. albicans and MRSA and C. jeikeium and C. jejuni	G B	
PF-045: peptide having multiple activities (chain 1 LDINDYRSTY; chain 2 LDINDYRSTY; Peptide with targeting and/or antimicrobial activity)	MRSA (S)	S. epidermidis; also recorded: E. coli; also recorded: E. faecalis; also recorded: C. jejuni	G B	
PF-031: peptide having multiple activities (chain 1 MPHHSTTSSRIVVPAHQSNMASTPNLSITP; chain 2 MPHHSTTSSRIVVPAHQSNMASTPNLSITP; Peptide with targeting and/or antimicrobial activity)	MRSA (M)	M. luteus; also recorded: C. albicans	G B	
PF-551: peptide having multiple activities (chain 1 QVKEKRREIELQFRDAEKKLEASVQAE; chain 2 QVKEKRREIELQFRDAEKKLEASVQAE; Peptide with targeting and/or antimicrobial activity)	MRSA (C)		G B	Target(s) [1, 3]: S. pneumoniae
PF-539: peptide having multiple activities (chain 1 SIILTKKKRRKIPLSIDSQIYKYTFKQ; chain 2 SIILTKKKRRKIPLSIDSQIYKYTFKQ; Peptide with targeting and/or antimicrobial activity)	MRSA (H)		G B	Organism, effect (S. pneumoniae): S. pneumoniae (A)
PF-290 (MVHDMTNGTLIIVKH; Peptide with targeting and/or antimicrobial activity)				Organism, effect (S. epidermidis): S. epidermidis (C)
PF-029: peptide having multiple activities (chain 1 NSTNE; chain 2 NSTNE; Peptide with targeting and/or antimicrobial activity)	MRSA (M)	S. epidermidis; also recorded: M. luteus; also recorded: C. albicans; also recorded: C. jejuni	G B	
PF-738: peptide having multiple activities (KSGATSAASGAKSGASS; Peptide with targeting and/or antimicrobial activity)			G B	Organism, effect (morphology, biofilm and growth disruption) (MRSA): MRSA (M); Target(s) (microorganisms bound by the targeting peptide) [1]: S. epidermidis; also recorded: C. albicans; also recorded: C. jeikeium
PF-026: peptide having multiple activities (chain 1 SIHFIN; chain 2 SIHFIN; Peptide with targeting and/or antimicrobial activity)	MRSA (M)	S. epidermidis and M. luteus and P. mirabilis and C. albicans and MRSA and E. faecalis and C. jeikeium	G B	
PF-382: peptide having multiple activities (chain 1 KYKCSWCKRVYTLRKDHKTAR; chain 2 KYKCSWCKRVYTLRKDHKTAR; Peptide with targeting and/or antimicrobial activity)	MRSA (M)		G B	Target(s) [1, 4]: S. epidermidis; also recorded: B. subtilis; also recorded: B. fragilis; also recorded: E. coli; also recorded: P. aeruginosa; also recorded: E. faecalis; also recorded: C. jeikeium; also recorded: C. jejuni
PF-149: peptide having multiple activities (GKVSVLTRVPRSLGGAPANQ; Peptide with targeting and/or antimicrobial activity)	MRSA (H)		G B	Target(s) [1, 4]: S. epidermidis and M. luteus and E. coli and MRSA and C. jeikeium
PF-156: peptide having multiple activities (LITAEQPATAPIAGK; Peptide with targeting and/or antimicrobial activity)	MRSA (H)		G B	Target(s) [1, 4]: S. epidermidis; also recorded: C. jeikeium
PF-764: peptide having multiple activities (GYFEPGKRD; Peptide with targeting and/or antimicrobial activity)			G B	Organism, effect (morphology, biofilm and growth disruption) (MRSA): MRSA (D); Organism, effect (morphology, biofilm and growth disruption) (S. pneumoniae): S. pneumoniae (H); Target(s) (microorganisms bound by the targeting peptide) [1]: S. epidermidis and M. luteus and C. albicans and MRSA and S. pneumoniae and E. faecalis and C. jeikeium
PF-035: peptide having multiple activities (chain 1 SFYESY; chain 2 SFYESY; Peptide with targeting and/or antimicrobial activity)	MRSA (M)	S. epidermidis and M. luteus and E. coli and C. albicans and MRSA and C. jeikeium and C. jejuni	G B	
PF-694 (chain 1 DLIRPLYSMSAPSVA; chain 2 DLIRPLYSMSAPSVA; Peptide with targeting and/or antimicrobial activity)				Organism, effect (morphology, biofilm and growth disruption) (MRSA): MRSA (R); Organism, effect (morphology, biofilm and growth disruption) (S. pneumoniae): S. pneumoniae (A); Target(s) (microorganisms bound by the targeting peptide) [1]: Mycobacteria spp
PF-293 (YDPLK; Peptide with targeting and/or antimicrobial activity)				Organism, effect (S. epidermidis): S. epidermidis (C)
PF-354: peptide having multiple activities (chain 1 FTFSKCRASNGRGFGTLWL; chain 2 FTFSKCRASNGRGFGTLWL; Peptide with targeting and/or antimicrobial activity)	MRSA (H)		G B	
